# Laboratory results from ChEMBL document CHEMBL1134089, “Arylsulphonyl hydroxamic acids: potent and selective matrix metalloproteinase inhibitors” (Bioorg Med Chem Lett, 2001).
# Columns and labels:
# [1] = molecular target: Matrix metalloproteinase-9 (Homo sapiens, UniProt P14780); assay: Inhibition of Matrix metalloprotease-9
# [2] = molecular target: 72 kDa type IV collagenase (Homo sapiens, UniProt P08253); assay: Inhibition of Matrix metalloprotease-2
# Interstitial collagenase = molecular target: T1, Interstitial collagenase (Homo sapiens, UniProt P03956); assay: Inhibition of Matrix metalloprotease-1
# T1 sequence (P03956 whole entry): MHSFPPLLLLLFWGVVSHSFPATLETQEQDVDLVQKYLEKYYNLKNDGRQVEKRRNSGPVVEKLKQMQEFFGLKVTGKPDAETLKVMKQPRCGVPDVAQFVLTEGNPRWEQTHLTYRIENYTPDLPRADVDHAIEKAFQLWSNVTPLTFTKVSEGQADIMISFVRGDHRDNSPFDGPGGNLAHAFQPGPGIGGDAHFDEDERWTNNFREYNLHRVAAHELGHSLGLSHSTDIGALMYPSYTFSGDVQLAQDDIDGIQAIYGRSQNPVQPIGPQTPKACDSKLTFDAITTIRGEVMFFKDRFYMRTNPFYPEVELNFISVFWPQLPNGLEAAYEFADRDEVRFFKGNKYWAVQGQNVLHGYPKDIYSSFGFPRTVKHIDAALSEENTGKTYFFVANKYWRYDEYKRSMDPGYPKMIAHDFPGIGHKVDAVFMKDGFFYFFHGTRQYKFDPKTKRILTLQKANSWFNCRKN
# Stromelysin-1 = Stromelysin-1 (Homo sapiens, UniProt P08254); assay: Inhibition of Matrix metalloprotease-3
# Neutrophil collagenase = Neutrophil collagenase (Homo sapiens, UniProt P22894); assay: Inhibition of Matrix metalloprotease-8
# Mus musculus = assay: Percent inhibition against B16-F10 mouse melanoma tested in vivo at 30 mg/kg; format: functional
# [3] = Inhibitory concentration required against shedding of IL-1 RII from stimulated PBMCs; format: functional
# [4] = Inhibitory concentration required against shedding of IL6-R from stimulated PBMCs; format: functional
# [5] = (§1) Inhibitory concentration required against shedding of L-Selectin from stimulated PBMCs; format: functional, Homo sapiens
# [6] = Inhibitory concentration required against shedding of TNF RII from stimulated PBMCs; format: functional
# [7] = Inhibitory concentration required against shedding of TNF-alpha from stimulated PBMCs; format: functional
# Rattus norvegicus [8] = assay: Percent inhibition against adjuvant arthritis in rats tested in vivo at 10 mg/kg; format: functional
# Rattus norvegicus [9] = assay: Plasma level evaluated in the rat after oral dosing of 10 mg/kg; format: ADME, organism-based; parameters: dose 10 mg/kg, route oral; conditions: in vivo
# Rattus norvegicus [10] = assay: Percent inhibition against adjuvant arthritis in rats tested in vivo at 3 mg/kg; format: functional
# [11] = as §1; format: functional
# Chain of Neutrophil collagenase (P22894 whole entry): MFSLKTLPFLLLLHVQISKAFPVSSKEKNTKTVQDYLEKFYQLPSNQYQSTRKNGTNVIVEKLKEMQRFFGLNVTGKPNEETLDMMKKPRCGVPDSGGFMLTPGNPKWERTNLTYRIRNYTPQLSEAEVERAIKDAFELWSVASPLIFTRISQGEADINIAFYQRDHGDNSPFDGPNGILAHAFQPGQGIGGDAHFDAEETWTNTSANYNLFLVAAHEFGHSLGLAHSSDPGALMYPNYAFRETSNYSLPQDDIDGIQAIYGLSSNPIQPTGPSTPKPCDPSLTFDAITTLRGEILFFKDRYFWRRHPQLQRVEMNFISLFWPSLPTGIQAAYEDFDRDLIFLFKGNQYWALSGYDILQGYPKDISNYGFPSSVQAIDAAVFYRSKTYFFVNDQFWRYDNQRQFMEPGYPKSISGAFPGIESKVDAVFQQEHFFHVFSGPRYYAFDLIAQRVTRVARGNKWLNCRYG
# Chain of Stromelysin-1 (P08254 whole entry): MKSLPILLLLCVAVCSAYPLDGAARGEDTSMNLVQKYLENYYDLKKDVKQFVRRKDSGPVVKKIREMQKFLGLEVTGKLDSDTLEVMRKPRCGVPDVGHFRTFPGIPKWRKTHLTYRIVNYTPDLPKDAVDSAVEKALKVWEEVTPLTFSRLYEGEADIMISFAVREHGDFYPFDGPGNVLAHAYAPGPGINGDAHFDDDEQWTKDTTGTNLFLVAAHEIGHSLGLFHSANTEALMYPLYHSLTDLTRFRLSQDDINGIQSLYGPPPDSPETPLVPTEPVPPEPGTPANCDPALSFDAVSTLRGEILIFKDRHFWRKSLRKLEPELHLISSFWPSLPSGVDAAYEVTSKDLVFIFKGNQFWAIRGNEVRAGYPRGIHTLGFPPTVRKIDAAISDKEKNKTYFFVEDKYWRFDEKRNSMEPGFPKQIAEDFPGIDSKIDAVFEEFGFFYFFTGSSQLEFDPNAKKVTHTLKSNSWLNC
# Chain of 72 kDa type IV collagenase (P08253 whole entry): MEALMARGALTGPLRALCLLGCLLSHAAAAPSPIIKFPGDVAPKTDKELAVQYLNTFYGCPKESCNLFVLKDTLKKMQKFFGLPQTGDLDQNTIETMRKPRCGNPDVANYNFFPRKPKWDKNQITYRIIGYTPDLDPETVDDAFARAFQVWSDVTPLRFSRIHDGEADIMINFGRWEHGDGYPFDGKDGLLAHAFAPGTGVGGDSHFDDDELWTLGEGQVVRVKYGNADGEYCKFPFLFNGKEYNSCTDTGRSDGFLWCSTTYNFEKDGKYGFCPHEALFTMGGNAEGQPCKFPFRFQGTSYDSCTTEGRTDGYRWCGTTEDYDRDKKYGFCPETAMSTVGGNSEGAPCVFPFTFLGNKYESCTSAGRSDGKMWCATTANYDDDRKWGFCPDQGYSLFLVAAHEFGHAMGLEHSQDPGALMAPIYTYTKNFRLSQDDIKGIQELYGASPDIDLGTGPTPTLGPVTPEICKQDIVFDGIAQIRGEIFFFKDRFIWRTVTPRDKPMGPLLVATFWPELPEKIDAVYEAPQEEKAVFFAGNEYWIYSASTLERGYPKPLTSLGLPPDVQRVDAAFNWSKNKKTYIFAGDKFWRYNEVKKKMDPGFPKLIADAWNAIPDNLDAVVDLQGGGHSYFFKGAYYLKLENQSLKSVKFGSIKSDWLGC
# Chain of Matrix metalloproteinase-9 (P14780 whole entry): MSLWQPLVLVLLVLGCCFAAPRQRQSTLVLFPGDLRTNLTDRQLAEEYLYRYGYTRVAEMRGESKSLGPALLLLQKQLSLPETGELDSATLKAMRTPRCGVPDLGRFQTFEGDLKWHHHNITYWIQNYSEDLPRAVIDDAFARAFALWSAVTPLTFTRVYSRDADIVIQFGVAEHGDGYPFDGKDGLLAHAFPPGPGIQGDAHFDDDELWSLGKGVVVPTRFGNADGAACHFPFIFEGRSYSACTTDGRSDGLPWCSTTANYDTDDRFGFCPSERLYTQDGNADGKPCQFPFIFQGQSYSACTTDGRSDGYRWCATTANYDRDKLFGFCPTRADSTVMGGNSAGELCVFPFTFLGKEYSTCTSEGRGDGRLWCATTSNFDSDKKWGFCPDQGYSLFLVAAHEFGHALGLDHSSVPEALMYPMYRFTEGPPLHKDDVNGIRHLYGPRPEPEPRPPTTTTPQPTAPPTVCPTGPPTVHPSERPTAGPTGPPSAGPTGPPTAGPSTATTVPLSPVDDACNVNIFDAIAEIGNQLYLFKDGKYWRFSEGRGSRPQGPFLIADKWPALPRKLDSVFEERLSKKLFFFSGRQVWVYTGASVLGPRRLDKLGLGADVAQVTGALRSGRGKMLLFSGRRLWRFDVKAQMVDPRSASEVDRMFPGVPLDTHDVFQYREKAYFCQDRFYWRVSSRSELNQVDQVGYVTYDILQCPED
Compound,IC50 [1] [nM],IC50 [2] [nM],IC50 (Interstitial collagenase) [nM],IC50 (Stromelysin-1) [nM],IC50 (Neutrophil collagenase) [nM],IC50 ([3]; Homo sapiens) [nM],IC50 ([4]; Homo sapiens) [nM],IC50 [5] [nM],IC50 ([6]; Homo sapiens) [nM],IC50 ([7]; Homo sapiens) [nM],Plasma level (Rattus norvegicus [9]) [ng/mL],IC50 [3] [nM],IC50 [4] [nM],IC50 [6] [nM],IC50 [7] [nM],IC50 [11] [nM],inhibition in vivo at 30 mg/kg (Mus musculus) [%],inhibition in vivo at 10 mg/kg (Rattus norvegicus [8]) [%],inhibition in vivo at 3 mg/kg (Rattus norvegicus [10]) [%]
O=C(NO)C(CCCc1ccccc1)CS(=O)(=O)c1ccc(C(O)c2ccccc2)cc1 (centres undefined),2500,1700,25000,2500,3000,,,,,,,,,,,,,,
O=C(NO)C(CCCc1ccccc1)CS(=O)(=O)c1ccc(Cc2ccccc2)cc1 (centres undefined),150,200,> 30000,> 2000,300,,,,,,,,,,,,,,
"CNC(=O)[C@@H](NC(=O)C(CC(C)C)C(O)C(=O)NO)C(C)(C)C (single isomer, unassigned)",,,,,,,,,,,,10000,10000,1000,2000,5000,40,50,

# More lines, in order of falling IC50 (Stromelysin-1), values ahead:
IC50 [1] [nM],IC50 [2] [nM],IC50 (Interstitial collagenase) [nM],IC50 (Stromelysin-1) [nM],IC50 (Neutrophil collagenase) [nM],IC50 ([3]; Homo sapiens) [nM],IC50 ([4]; Homo sapiens) [nM],IC50 [5] [nM],IC50 ([6]; Homo sapiens) [nM],IC50 ([7]; Homo sapiens) [nM],Plasma level (Rattus norvegicus [9]) [ng/mL],IC50 [3] [nM],IC50 [4] [nM],IC50 [6] [nM],IC50 [7] [nM],IC50 [11] [nM],Compound,inhibition in vivo at 30 mg/kg (Mus musculus) [%],inhibition in vivo at 10 mg/kg (Rattus norvegicus [8]) [%],inhibition in vivo at 3 mg/kg (Rattus norvegicus [10]) [%]
400,800,20000,1200,300,,,,,,,,,,,,O=C(c1ccccc1)c1ccc(S(=O)(=O)CC(CCCc2ccccc2)C(=O)O)cc1 (centres undefined),,,
150,50,20000,350,80,,,,,,,,,,,,O=C(c1ccc(S(=O)(=O)CC(CCCc2ccccc2)C(=O)NO)cc1)c1cc[n+]([O-])cc1 (centres undefined),,,
,,,100,15,> 100000,> 100000,> 100000,> 100000,> 100000,,,,,,,O=C(c1ccccc1)c1ccc(S(=O)(=O)CC(CCCc2ccccc2)C(=O)NO)cc1 (centres undefined),40,40,
15,3,10000,100,3,37000,> 100000,> 100000,> 100000,> 100000,300,,,,,,Cl.O=C(c1ccncc1)c1ccc(S(=O)(=O)CC(CCCc2ccccc2)C(=O)NO)cc1 (centres undefined),80,,50
